The test system of test [1] is opioid receptors of the guinea pig ileum. It counts as cell-based. The conditions noted are these: for inhibition of electrically induced contractions / antagonism by naloxone / opioid (opiate-like) activity in vitro: words; for antagonism by naloxone: naloxone 0.5, 5 and 50 ng/ml (eseroline) or 5 and 50 ng/ml; for opioid (opiate-like) activity in vitro: isolated tissue preparations; for log dose ratio (±S.D.), shift by naloxone, ileum: mean of not less than 6 determinations; for enhancement of electrically induced contractions / excitatory stage: eseroline above 400 ng/ml in presence of naloxone; for evidence of cholinesterase inhibition on the ileum: inferred from enhancement of contractions. The protocol: Sections of guinea-pig ileum were set up for transmural stimulation under a resting tension of 0.75 g in Krebs solution bubbled with 5% carbon dioxide in oxygen at 37 degrees C according to the method of Kosterlitz and Watt (1968) Contractions were elicited from stainless steel electrodes, one of which was sited in the lumen at supramaximal voltage and a frequency of 0.05 Hz. Isometric contractions were recorded on a Rikadenki recorder. Potential agonists were added directly to the bath and the contact time was until maximum inhibition had occurred. The responses of the preparation in the presence of naloxone were examined with the naloxone present in the physiological solution. Results were expressed as percent inhibition. In each experiment a log dose effect relationship was determined using at least four concentrations in the absence of antagonist, and then in the presence of one or more concentrations of naloxone.
(§1) Eseroline was dissolved in minimal 0.1N hydrophloric acid and dilutions made with water. Salts were dissolved in water.

Test [2] deals with cholinesterase (guinea pig ileum as the enzyme source). The test is described as follows: Anticholinesterase Test (method of Ellman, Courtney et al.). Format: biochemical. The settings on record: concentrations up to 6.4 ug/ml where stated. How it is done: Anticholinesterase activity was assessed using the method of Ellman, Courtney et al., (1961) using guinea pig ileum as the enzyme source.
A general note: Ellman's reagent forms a yellow product with free thiols.

Test [3] concerns opioid receptors of the mouse vas deferens. It counts as cell-based. The settings on record: for log dose ratio (±S.D.), shift by naloxone, vas deferens: mean of not less than 6 determinations. How it is done: Vasa deferentia were removed and mounted in 1.2 ml tissue baths under a resting tension of 200 mg in Mg^2+ -free Krebs solution bubbled with a mixture of 95% oxygen and 5% carbon dioxide at 36 degrees C. The preparations were left for 1 hour to equilibriate. Contractions were elicited from platinum electrodes fused to the sides of the tissue bath using supramaximal voltage (usually above 100 V), a pulse width of lms and a frequency of 0.1 Hz. Isometric contractions were recorded on a Grass polygraph. As with the ileum, concentration effect relationships were determined in the absence then presence of naloxone.
as §1
The values are derived from individual comparisons of the percentage inhibition of the preparations in the presence of a concentration of naloxone and that in the same preparation in the absence of naloxone.

The subject of test [4] is mice. The test is described as follows: animal or person. Format: in vivo, mouse. The conditions noted are these: for ED50: Mus musculus, read-out: ED50 Hot Plate; for antagonism of analgesia by naloxone: analgesic tests (Hot Plate and Abdominal Constriction). How it is done:
(§2) Analgesic activity was assessed using two methods in mice--the Hot Plate Test and the Abdominal Constriction Test (acetic acid). The test drug was given by subcutaneous injection and the results expressed as ED50 with 95% confidence intervals.
(§3) ED50 and 95% confidence intervals.
(§4) mg/kg, subcutaneous injection.

For test [5], the system named is mice. The test is described as follows: animal or person. It counts as in vivo. The conditions noted are these: Mus musculus, sc, subcutaneous injection, 95% confidence intervals, read-out: ED50 Abdominal Constriction (Acetic acid). How it is done:
as §2, §3, §4

For test [6] the following is noted: relative to morphine; cited from earlier work.
Test [7] concerns cholinesterase. The settings on record: cited from earlier work.
The mark [8] stands for this setting: Naloxone 10 ng/ml (so in the source).

Results on six molecules are retold here after US4996223A, “New organic compounds having opioid properties” (priority 1986, dated 1991).

SMILES strings stand for the structures. Converted amounts (≈) assume the structure as drawn. “Also recorded” adds a separate entry of the source. Like-named read-outs stand apart in the source and are kept apart here.

The term ED50 denotes the dose that gives a 50% effect, or the effect in half of the subjects.

Regarding `CN1c2ccc(O)cc2C23CCCCC12N(CC1CC1)CC3` (racemic) [1,2,3,4-tetrahydro-6-hydroxy-9-methyl-10-cyclopropylmethyl-9a,4a-(iminoethano)-9H-carbazole], the “antagonist activity against morphine” value in test [1] is listed as “no detectable antagonist activity against morphine”. Also, in test [1] (guinea pig ileum), the “inhibition of electrically induced contractions” value is on record as “inhibited the contractions of the ileum, but was of weaker potency” and the antagonism by naloxone entry was “Naloxone had little antagonist activity”.

For `C=CCN1CCC23CCCCC12N(C)c1ccc(O)cc13` (racemic) [6-Hydroxy-9-methyl-10-allyl-echiboline, 1,2,3,4-tetrahydro-6-hydroxy-9-methyl-10-allyl-9a,4a-(iminoethano)-9H-carbazole], in test [1], the “IC50, inhibition of contractions of the ileum” value came out at 0.3 µg/mL; the “antagonist activity against morphine” value is on record as “no antagonist activity against morphine”; the “potency relative to morphine” value is “about ten times less potent than morphine”; the “receptor selectivity / receptor population compared with morphine” value was “interaction with a different receptor population than that with which morphine interacts; also recorded: likely to be the "kappa" receptor”. Moreover, in test [1], the “opioid (opiate-like) activity in vitro” value is reported as “possesses opioid agonist activity in vitro”. Further, in test [1] (guinea pig ileum), the antagonism by naloxone result was “antagonized by naloxone; also recorded: relative lack of potency of naloxone as an antagonist”.

On to `CN1CCC23CCCCC12N(C)c1ccc(O)cc13` (racemic) [6-hydroxy-9,10-dimethyl-echiboline, 1,2,3,4-tetrahydro-6-hydroxy-9,10-dimethyl-9a,4a-(iminoethano)-9H-carbazole], for which the anti-cholinesterase inhibitory activity result in test [2] was “no evidence of cholinesterase inhibitory activity”. Also, the anti-cholinesterase inhibitory activity entry in test [2] (listed as echiboline derivative) is “no detectable anti-cholinesterase inhibitory activity”. For the same molecule, the “antagonism by naloxone compared with morphine” value in test [3] was “some ten times less effective as an antagonist than against morphine”. For the same molecule, the “log dose ratio (±S.D.), shift by naloxone, vas deferens” value in test [3] (setting [8]) is 0.87 (+0.19). Further, the “log dose ratio (±S.D.), shift by naloxone, vas deferens” value in test [3] (Naloxone 500 ng/ml) is 1.66 (+0.13). In addition, the ED50 in test [4] (sc, mice, subcutaneous injection, 95% confidence intervals) stood at 1.71 mg/kg. In addition, the “antagonism of analgesia by naloxone” value in test [4] (mice) is “antagonised by naloxone”. Also, in test [4] (mouse, in vivo, sc), the “potency relative to morphine in mice” value is reported as “somewhat greater than that predicted from the in vitro tests”. The median effective dose (ED50) in test [5] worked out at 0.23 mg/kg. Also, in test [1], the “receptor selectivity / receptor population compared with morphine” value was “differs from that of morphine”, the “evidence of cholinesterase inhibition on the ileum” value was “no evidence of cholinesterase inhibition” and the “opioid (opiate-like) activity in vitro” value is “possessed opiate-like activity”. Also, the “log dose ratio (±S.D.), shift by naloxone, ileum” value in test [1] (Naloxone 5 ng/ml) is 0.91 (+0.27). Further, the “log dose ratio (±S.D.), shift by naloxone, ileum” value in test [1] (setting [8]) was 1.54 (+0.22). For the same molecule, the “EC50 (±SD) Guinea-pig ileum” value in test [1] (Table 1, mean of not less than 12 determinations, S.D. range on next line) turned out to be 0.0335 µg/mL (≈ 0.13 µM). Besides, the “inhibition, some individual values” in test [1] (guinea pig ileum, individual values) is “over 90%”. Further, in test [1] (guinea pig ileum), the “inhibition of electrically induced contractions” value is reported as “similarly inhibited the electrically-induced contractions”, the antagonism by naloxone entry is “antagonised by naloxone in a concentration-dependent manner” and the “enhancement of electrically induced contractions / excitatory stage” value is “at no stage was an excitatory stage seen; also recorded: No enhancement of contractions was seen”.

As for `CN1CCC2(C)c3cc(O)ccc3N(C)C12` (single isomer, unassigned) [eseroline, reference compound], in test [6], the analgesic properties entry is recorded as “approximately equipotent with morphine”. For the same molecule, in test [1] (guinea pig ileum), the “maximum inhibition of electrically induced contractions” value is “about 50%”, the “inhibition of electrically induced contractions” value is reported as “concentration-dependent inhibition of contractions”, the antagonism by naloxone entry is recorded as “antagonised by naloxone in a concentration-dependent manner” and the “enhancement of electrically induced contractions / excitatory stage” value is listed as “enhanced electrically-induced contractions of the muscle”. In addition, in test [1], the “evidence of cholinesterase inhibition on the ileum” value is “evidence for anti-cholinesterase activity was also seen” and the “opioid (opiate-like) activity in vitro” value is “has opiate activity”. Also, the anticholinesterase activity entry in test [7] is reported as “retains undesirable anticholinesterase activity”.

`C=CCN1CC[C@]23c4c5ccc(O)c4O[C@H]2C(=O)CC[C@@]3(O)[C@H]1C5` [Naloxone, naloxone, reference compound]: the “antagonism of analgesia by naloxone” value in test [4] (mice) is reported as “effective antagonist”.

For `CN1CC[C@]23c4c5ccc(O)c4O[C@H]2[C@@H](O)C=C[C@H]3[C@H]1C5` [morphine, reference compound], the “times more potent than (±)-6-hydroxy-9,10-dimethyl-echiboline” value in test [3] (mouse vas deferens, from EC50 values) was 3.6 times. The ED50 in test [4] (sc) stood at 3.22 mg/kg. Also, the “times more potent than (±)-6-hydroxy-9,10-dimethyl-echiboline” value in test [1] (guinea pig ileum, from EC50 values) is recorded as 2.8 times. Also, in test [1] (guinea pig ileum), the “inhibition of electrically induced contractions” value is “familiar inhibition of the preparation” and the antagonism by naloxone entry was “naloxone antagonism was confirmed”.
